For this data set the following is noted: Liquid, Ebulliometric method (Recirculating still).

SMILES strings stand for the structures. ± gives the expanded uncertainty stated by the source.

For `CC(C)CCl` [1-chloro-2-methylpropane], the “vapor or sublimation pressure” value is, setting by setting: (288.15 K) 13 ± 0.097 kPa; (298.15 K) 20.35 ± 0.13 kPa; (308.15 K) 30.45 ± 0.17 kPa.

Regarding `CC(C)(C)Cl` [2-chloro-2-methylpropane], the “vapor or sublimation pressure” value by setting is: (288.15 K) 26.42 ± 0.16 kPa; (298.15 K) 40.13 ± 0.22 kPa; (308.15 K) 59.52 ± 0.3 kPa.

Take `CCC(C)Cl` (configuration not stated) [2-chlorobutane]: the “vapor or sublimation pressure” value is, setting by setting: (288.15 K) 13.36 ± 0.099 kPa; (298.15 K) 20.91 ± 0.13 kPa; (308.15 K) 31.55 ± 0.18 kPa.

As for `CCCCCC` [hexane], the “vapor or sublimation pressure” value (288.15 K) came to 12.89 ± 0.097 kPa, the “vapor or sublimation pressure” value (298.15 K) came to 20.22 ± 0.13 kPa and the “vapor or sublimation pressure” value (308.15 K) is 30.7 ± 0.17 kPa.

The values above are taken from the NIST ThermoML archive (doi:10.1021/je500116z).
